From the supplement of paper PMC10307832

Columns and labels:
Assay in all cases: relative viability (nuclei count vs DMSO), 5 days (fraction); higher = more cells survive
NCI-H358 = test system: NCI-H358
Procedure, shortened: (§1)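 Lung cancer cell lines in 1536-well plates were dosed by pin tool the day after seeding, either with one drug alone or with a fixed anchor-drug dose plus five library-drug doses (not always all listed) in √10 steps. After 5 days, cells were fixed and their nuclei stained in one step (final 0.05% Triton X-100, 1% formaldehyde, 1 ug/ml Hoechst), then counted on 4× images. Relative viability is the nuclei count in treated wells divided by that in vehicle wells. Values are medians of duplicate plates.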

NCI-H650 = test system: NCI-H650
Procedure, shortened: as §1

NCI-H838 = test system: NCI-H838
Procedure, shortened: as §1

NCI-H1792 = test system: NCI-H1792
Procedure, shortened: as §1

SK-MES-1 = test system: SK-MES-1
Procedure, shortened: as §1

NCI-H596 = test system: NCI-H596
Procedure, shortened: as §1

HARA = test system: HARA
Procedure, shortened: as §1

201T = test system: 201T
Procedure, shortened: as §1

EKVX = test system: EKVX
Procedure, shortened: as §1

COR-L23 = test system: COR-L23
Procedure, shortened: as §1

HCC-827 = test system: HCC-827
Procedure, shortened: as §1

BEN = test system: BEN
Procedure, shortened: as §1

NCI-H1437 = test system: NCI-H1437
Procedure, shortened: as §1

A-427 = test system: A-427
Procedure, shortened: as §1

HCC-15 = test system: HCC-15
Procedure, shortened: as §1

HCC-44 = test system: HCC-44
Procedure, shortened: as §1

NCI-H1975 = test system: NCI-H1975
Procedure, shortened: as §1

NCI-H23 = test system: NCI-H23
Procedure, shortened: as §1

NCI-H1666 = test system: NCI-H1666
Procedure, shortened: as §1

NCI-H441 = test system: NCI-H441
Procedure, shortened: as §1

## COc1nc(C)cnc1NS(=O)(=O)c1cccnc1-c1ccc(-c2nnco2)cc1 [Zibotentan] + Cc1nc(NC(=O)N2CCC[C@H]2C(N)=O)sc1-c1ccnc(C(C)(C)C(F)(F)F)c1 [Alpelisib] (partner 2 µM)
NCI-H358; first compound 0.08 µM
  relative viability: 1
NCI-H358; first compound 0.8 µM
  relative viability: 0.891
NCI-H358; first compound 2.53 µM
  relative viability: 0.848
NCI-H650; first compound 0.08 µM
  relative viability: 1.13
NCI-H650; first compound 0.253 µM
  relative viability: 1.06
NCI-H650; first compound 0.8 µM
  relative viability: 1.03
NCI-H650; first compound 2.53 µM
  relative viability: 1.16
NCI-H838; first compound 0.08 µM
  relative viability: 0.957
NCI-H838; first compound 0.253 µM
  relative viability: 1.01
NCI-H838; first compound 0.8 µM
  relative viability: 0.956
NCI-H838; first compound 2.53 µM
  relative viability: 1.05
NCI-H1792; first compound 0.08 µM
  relative viability: 0.621
NCI-H1792; first compound 0.253 µM
  relative viability: 0.58
NCI-H1792; first compound 0.8 µM
  relative viability: 0.559
NCI-H1792; first compound 2.53 µM
  relative viability: 0.648
SK-MES-1; first compound 0.08 µM
  relative viability: 0.947
SK-MES-1; first compound 0.253 µM
  relative viability: 0.871
SK-MES-1; first compound 0.8 µM
  relative viability: 0.948
SK-MES-1; first compound 2.53 µM
  relative viability: 0.989
NCI-H596; first compound 0.08 µM
  relative viability: 0.532
NCI-H596; first compound 0.253 µM
  relative viability: 0.482
NCI-H596; first compound 0.8 µM
  relative viability: 0.485
NCI-H596; first compound 2.53 µM
  relative viability: 0.484
HARA; first compound 0.08 µM
  relative viability: 0.856
HARA; first compound 0.253 µM
  relative viability: 0.764
HARA; first compound 0.8 µM
  relative viability: 0.686
HARA; first compound 2.53 µM
  relative viability: 0.89
201T; first compound 0.08 µM
  relative viability: 1.05
201T; first compound 0.253 µM
  relative viability: 0.993
201T; first compound 0.8 µM
  relative viability: 1.1
201T; first compound 2.53 µM
  relative viability: 1.11
EKVX; first compound 0.08 µM
  relative viability: 0.927
EKVX; first compound 0.253 µM
  relative viability: 0.86
EKVX; first compound 0.8 µM
  relative viability: 0.775
EKVX; first compound 2.53 µM
  relative viability: 0.82
COR-L23; first compound 0.08 µM
  relative viability: 0.847
COR-L23; first compound 0.253 µM
  relative viability: 0.655
COR-L23; first compound 0.8 µM
  relative viability: 0.831
COR-L23; first compound 2.53 µM
  relative viability: 0.824
HCC-827; first compound 0.08 µM
  relative viability: 1.01
HCC-827; first compound 0.253 µM
  relative viability: 1.07
HCC-827; first compound 0.8 µM
  relative viability: 0.808
HCC-827; first compound 2.53 µM
  relative viability: 0.975
BEN; first compound 0.08 µM
  relative viability: 1.17
BEN; first compound 0.253 µM
  relative viability: 0.955
BEN; first compound 0.8 µM
  relative viability: 1.02
BEN; first compound 2.53 µM
  relative viability: 0.922
NCI-H1437; first compound 0.08 µM
  relative viability: 0.949
NCI-H1437; first compound 0.253 µM
  relative viability: 0.867
NCI-H1437; first compound 0.8 µM
  relative viability: 0.913
NCI-H1437; first compound 2.53 µM
  relative viability: 0.973
A-427; first compound 0.08 µM
  relative viability: 1.08
A-427; first compound 0.253 µM
  relative viability: 1.14
A-427; first compound 0.8 µM
  relative viability: 1.09
A-427; first compound 2.53 µM
  relative viability: 1.08
HCC-15; first compound 0.08 µM
  relative viability: 0.954
HCC-15; first compound 0.253 µM
  relative viability: 0.884
HCC-15; first compound 0.8 µM
  relative viability: 0.869
HCC-15; first compound 2.53 µM
  relative viability: 0.844
HCC-44; first compound 0.08 µM
  relative viability: 0.932
HCC-44; first compound 0.253 µM
  relative viability: 0.768
HCC-44; first compound 0.8 µM
  relative viability: 0.842
HCC-44; first compound 2.53 µM
  relative viability: 0.842
NCI-H1975; first compound 0.08 µM
  relative viability: 0.635
NCI-H1975; first compound 0.253 µM
  relative viability: 0.548
NCI-H1975; first compound 0.8 µM
  relative viability: 0.642
NCI-H1975; first compound 2.53 µM
  relative viability: 0.585
NCI-H23; first compound 0.08 µM
  relative viability: 0.679
NCI-H23; first compound 0.253 µM
  relative viability: 0.7
NCI-H23; first compound 0.8 µM
  relative viability: 0.681
NCI-H23; first compound 2.53 µM
  relative viability: 0.726
NCI-H1666; first compound 0.08 µM
  relative viability: 1.12
NCI-H1666; first compound 0.253 µM
  relative viability: 0.724
NCI-H1666; first compound 0.8 µM
  relative viability: 1.18
NCI-H1666; first compound 2.53 µM
  relative viability: 0.993
NCI-H441; first compound 0.08 µM
  relative viability: 0.757
NCI-H441; first compound 0.8 µM
  relative viability: 0.776
NCI-H441; first compound 2.53 µM
  relative viability: 0.779
